Experimental data: article PMC11054638, “Transport of Non-Steroidal Anti-Inflammatory Drugs across an Oral Mucosa Epithelium In Vitro Model” (Pharmaceutics, 2024)
Read-outs that look alike come from different tables or passages of the source.

Assays:
[1] = system: oral mucosa epithelium in vitro model based on human cell line TR146; assay: Transport study across oral mucosa Transwell model, apical to basolateral, 240 min; settings: for permeability coefficient: mean ± SEM
Procedure: (§1) As soon as cells reached confluency, cultivation was switched from submerged to airlift and 1% Human Keratinocytes Growth Supplements (HKGS, Gibco, Thermofisher, Vienna, Austria, S0015) was added to the cultivation media on the basolateral compartment. Media were changed every 2–3 days until the day of experiment on day 29. Cells from passage 14–36 were used for experiments. Transepithelial electric resistance (TEER) was measured on day of experiment, as described in detail previously.
(§2) Solutions were diluted to 10 µM (carboxyfluorescein) or 100 µM in DMEM on day of experiments.
(§3) First, TEER was measured in cultivation media on the day of experiment. Afterwards, cells and blanks were washed twice with DMEM on the apical (300 µL) and basolateral (900 µL) compartments and selected cells and blanks were treated with DMEM with or without 100 µM probenecid or verapamil on the apical and basolateral side at 37 °C for 30 min. […] To cells which were pre-incubated with probenecid or verapamil, 100 µM probenecid or verapamil was applied apically as well. DMSO content was adapted for cells with no inhibitors, and DMSO and dd-H2O content was adjusted in the basolateral compartment as well in order to apply the same vehicle concentrations on the apical and basolateral compartment. […] Subsequently, duplicates of apical sample were collected, and samples were frozen at −80 °C until further analysis with High-Performance Liquid Chromatography (HPLC).
(§4) Peaks were quantified using the software Chromeleon Version 7.2.6, and corresponding mili absorbance unit × time [mAU × min] values were used for data analysis.
(§5) Mean values of relative fluorescence unit (RFU) or detected area [mAU × min] were used for calculation. For the first timepoint, the clearance [µL] for the detected area was calculated as shown in the formula below (1a), with Abasot1 as the measured area [mAU × min] at the first time point of the basolateral sample, Vbaso as the basolateral volume [µL] and Astock as the area measured for the applied stock solution. […] Clearance [µL] for carboxyfluorescein was calculated with the same formulas using RFU. (1a) Clearance=Abasot1×Vbaso/AStock (1b) Clearancetn=Abasotn×Vbaso/AStock−∑(Abasotn−1 ×3− Abasot1 ×3)
(§6) Cleared volume [µL] was calculated by plotting the sum of clearance at all time points over time [min]. The resulting slope PS [µL/min] was calculated inversely. For calculation of the PScell, the inverse PS blanks were subtracted, as shown below in Formula (2). (2) 1/PScell=1/PSall−1/PSblank
(§7) The final permeability coefficient is calculated by dividing the inverse PScell by the area of the ThinCerts (0.336 cm^2) and multiplying by a conversion factor to give the permeability coefficient as µm/min.

in vitro = settings: human
Procedure: as §1, §2, §3, §4, §5, §6, §7

[2] = Ibuprofen study, Probenecid, mean ± SD
[3] = Ibuprofen study, Verapamil, mean ± SD
[4] = Ibuprofen study, w/o Inhibitor, mean ± SD

## CC(C)Cc1ccc(C(C)C(=O)O)cc1 (centres unmarked) [ibuprofen]
[1]; [2]
  PS all (cell + blank): 0.12 ± 0.03 µL/min
  PS cell: 0.26 ± 0.11 µL/min
[1]; [3]
  PS all (cell + blank): 0.11 ± 0.01 µL/min
  PS cell: 0.24 ± 0.04 µL/min
[1]; [4]
  PE (permeability of cell + blank): 2.94 ± 0.3 µm/min
  PS all (cell + blank): 0.1 ± 0.01 µL/min
  PS cell: 0.19 ± 0.05 µL/min
[1]; Table S3, mean ± SD
  Permeability coefficient without inflammation and inhibitor: 5.77 ± 1.48 µm/min
[1]; human, 240 min
  PE (permeability of cell + blank): 3.47 ± 0.76 µm/min
[1]; human, 240 min, 100 µM
  increase of permeability coefficient with probenecid compared to no inhibitor: 1.36 fold
  increase of permeability coefficient with verapamil compared to no inhibitor: 1.23 fold
[1]; human, 4 h, 100 µM
  cumulated concentration of NSAID in the basolateral compartment: 0.067 ± 0.0078 nmol/mm^2
[1]; with 100 µM probenecid
  permeability coefficient: 7.87 ± 1.32 µm/min
[1]; with 100 µM verapamil
  permeability coefficient: 7.13 ± 0.51 µm/min
[1]; without inhibitor, 100 µM apical (CF 10 µM)
  permeability coefficient: 5.77 ± 0.60 µm/min
In vitro; PC (permeability of cell)
  Papp A→B at 240 min: 13.1 ×10⁻⁶ cm/s
In vitro; PE (permeability of cell + blank)
  Papp A→B at 240 min: 5.45 ×10⁻⁶ cm/s
TR146 cell layers; cells treated with cytokines
  regulation of permeability with or without probenecid: no distinct regulation
TR146 cell layers; cells treated with ibuprofen previously
  higher permeability by addition of probenecid: 52.64%
TR146 cell layers; control group
  higher permeability by addition of probenecid: 42.46%
